Test results as given in paper PMC3493529, “Molecular and Pharmacological Characterization of Serotonin 5-HT2α and 5-HT7 Receptors in the Salivary Glands of the Blowfly Calliphora vicina” (PLoS ONE, 2012).
Read-outs that look alike come from different tables or passages of the source.

Experiments:
[1] = target: T1, Cv5-HT2α (Calliphora vicina, UniProt I7JA47); test: Ca2+ signals (Fluo-4) in Cv5-HT2α-expressing HEK 293 cells, agonists; type: cell-based; conditions: for effect on [Ca2+]i in Cv5-HT2α-expressing cells: 1 µM biogenic amine, non-transfected cells as control; for EC50 / Cv5-HT2α EC50 / Cv5-HT2α log EC50: Cv5-HT2α-expressing HEK 293 cells; for Cv5-HT2α EC50 / Cv5-HT2α log EC50: Ca2+-dependent Fluo-4 signal
Protocol: (§1) We applied a previously established protocol to generate cell lines that constitutively expressed either Cv5-HT2α or Cv5-HT7. […] (flpTM cells, provided by Sibion biosciences GmbH, Jülich, Germany). Approximately 8 µg of the respective expression vectors were introduced into ∼4×10^5 cells by a modified calcium-phosphate method. Stably transfected cells were selected in the presence of the antibiotics Blasticidin (0.1 mg/ml; Cv5-HT2α) or G418 (0.8 mg/ml; Cv5-HT7). Expression of Cv5-HT2α and Cv5-HT7 was monitored by Western blotting with commercially available anti-His antibodies (anti-6x His Epitope Tag; Rockland Immunochemicals Inc, Gilbertsville, USA) and anti-HA antibodies (clone 3F10; Roche, Penzberg, Germany), respectively.
(§2) The ability of Cv5-HT2α to induce Ca^2+ signals in the transfected cell line was measured with the Ca^2+-sensitive dye Fluo-4. Similarly, Cv5-HT7-induced cAMP production was indirectly monitored by the cAMP-dependent activation of the cyclic nucleotide-gated ion channel in flpTM cells (see above). The cyclic nucleotide-gated ion channel is permeable to Ca^2+ ions and thus an increase in [cAMP]i leads to an influx of Ca^2+ ions, which can be detected with Fluo-4. […] After 1 h, the loading solution was substituted for dye-free ES. To inhibit cAMP hydrolysis in Cv5-HT7-expressing cells, ES containing 100 µM isobutylmethylxanthine (IBMX) was used. Plates were transferred into a fluorescence reader (FLUOstar Omega; bmg, Offenburg, Germany) and Fluo-4 fluorescence was monitored. […] Fluorescence emission was detected at 520 nm. Once the basal fluorescence in each well had reached a stable value, various concentrations of the respective ligands were added. The resulting changes in Fluo-4 fluorescence were recorded automatically.

[2] = target: T2, Cv5-HT7 (Calliphora vicina, UniProt I7IA71); test: Direct cAMP quantification (cAMP-Screen System) in Cv5-HT7-expressing cells; type: cell-based; conditions: 1 µM biogenic amine; 100 µM IBMX
Protocol: The Cv5-HT7-expressing cell line was also used to determine receptor-induced cAMP production in response to various biogenic amines directly. Assays to quantify cAMP amounts were performed as described earlier by using the cAMP-Screen System (Applied Biosystems, Darmstadt, Germany).

[3] = system: salivary glands; set-up: method as in PMID 9097929; conditions: read-out: EC50 of Ca2+ responses in salivary glands; cited from earlier work
[4] = system: blowfly salivary glands; test: Transepithelial potential (TEP) of blowfly salivary glands, agonists; type: cell-based, Calliphora vicina; set-up: key to negative TEP phase / positive TEP phase: ++: high amplitude; +: low amplitude; -: no apparent effect; -/+: variable effect
Protocol: The abdominal portions of salivary glands were dissected in physiological saline (in mM: 128 NaCl, 10 KCl, 2 CaCl2, 2.7 MgCl2, 3 Na-glutamate, 2.8 maleic acid, 10 D-glucose and 10 Tris-HCl, pH 7.2). Measurements of transepithelial potential (TEP) were performed by the oil-gap method with a DPA-2F differential amplifier (npi Electronic Instruments, Tamm, Germany). Data were sampled and digitized at 1 Hz (KUSB-3102 module for AD-conversion; Keithley, Germering, Germany) by using the software TestPoint (v4.1; Capital Equipment Corp, Billerica, MA, USA) for data acquisition and storage.

[5] = system: blowfly salivary glands; set-up: method as in PMID 6272697, PMID 4339528, PMID 16621952; conditions: cAMP formation, electrical response, luminal acidification and fluid secretion; read-out: 5-HT concentration eliciting the half-maximal effect in blowfly salivary glands; cited from earlier work
[6] = target: T2, Cv5-HT7; test: cAMP-dependent CNG channel Ca2+ influx (Fluo-4) in Cv5-HT7-expressing flpTM cells, agonists; type: cell-based
Protocol: as §1, §2

[7] = target: T2, Cv5-HT7; test: Inhibition of 5-HT-induced Fluo-4 signals in Cv5-HT7-expressing cells; type: cell-based; conditions: in the presence of 6 nM 5-HT
Protocol: as §1, with “Cv5-HT7. For Cv5-HT2α expression, human embryonic kidney cells (HEK 293; ECACC, Salisbury, UK) were chosen.” for “Cv5-HT7.”
(§3) The ability of Cv5-HT2α to induce Ca^2+ signals in the transfected cell line was measured with the Ca^2+-sensitive dye Fluo-4. Similarly, Cv5-HT7-induced cAMP production was indirectly monitored by the cAMP-dependent activation of the cyclic nucleotide-gated ion channel in flpTM cells (see above). The cyclic nucleotide-gated ion channel is permeable to Ca^2+ ions and thus an increase in [cAMP]i leads to an influx of Ca^2+ ions, which can be detected with Fluo-4. Cells were grown in 96-well plates to a density of ∼3×10^4 (Cv5-HT2α) or 1.5×10^4 (Cv5-HT7) and then incubated in extracellular solution (ES in mM: 120 NaCl, 5 KCl, 2 CaCl2, 2 MgCl2, 10 glucose, 10 HEPES, pH 7.4) containing 3 mM probenecid, 0.02% (w/v) Pluronic® F-127 (Sigma) and 2 µM Fluo-4AM (Invitrogen). After 1 h, the loading solution was substituted for dye-free ES. To inhibit cAMP hydrolysis in Cv5-HT7-expressing cells, ES containing 100 µM isobutylmethylxanthine (IBMX) was used. Plates were transferred into a fluorescence reader (FLUOstar Omega; bmg, Offenburg, Germany) and Fluo-4 fluorescence was monitored. The excitation wavelength was 485 nm. Fluorescence emission was detected at 520 nm. Once the basal fluorescence in each well had reached a stable value, various concentrations of the respective ligands were added. The resulting changes in Fluo-4 fluorescence were recorded automatically.
(§4) Changes in Ca^2+-dependent Fluo-4 signals were registered automatically. Data represent the means±SD of eight replicates. […] Relative fluorescence (%) is normalized to the values obtained with 100 nM 5-HT in the absence of antagonists. […] Relative fluorescence (%) is normalized to the values obtained with 6 nM 5-HT in the absence of antagonists.

[8] = target: T1, Cv5-HT2α; test: Inhibition of 5-HT-induced Ca2+ signals in Cv5-HT2α-expressing cells; type: cell-based
Protocol: as §1, with “Cv5-HT7. For Cv5-HT2α expression, human embryonic kidney cells (HEK 293; ECACC, Salisbury, UK) were chosen.” for “Cv5-HT7.”
as §3, §4

[9] = Fluo-4 signal, Cv5-HT7-expressing flpTM cells, 100 µM IBMX, read-out: Cv5-HT7 EC50

T2 sequence (I7IA71 entry or part of it): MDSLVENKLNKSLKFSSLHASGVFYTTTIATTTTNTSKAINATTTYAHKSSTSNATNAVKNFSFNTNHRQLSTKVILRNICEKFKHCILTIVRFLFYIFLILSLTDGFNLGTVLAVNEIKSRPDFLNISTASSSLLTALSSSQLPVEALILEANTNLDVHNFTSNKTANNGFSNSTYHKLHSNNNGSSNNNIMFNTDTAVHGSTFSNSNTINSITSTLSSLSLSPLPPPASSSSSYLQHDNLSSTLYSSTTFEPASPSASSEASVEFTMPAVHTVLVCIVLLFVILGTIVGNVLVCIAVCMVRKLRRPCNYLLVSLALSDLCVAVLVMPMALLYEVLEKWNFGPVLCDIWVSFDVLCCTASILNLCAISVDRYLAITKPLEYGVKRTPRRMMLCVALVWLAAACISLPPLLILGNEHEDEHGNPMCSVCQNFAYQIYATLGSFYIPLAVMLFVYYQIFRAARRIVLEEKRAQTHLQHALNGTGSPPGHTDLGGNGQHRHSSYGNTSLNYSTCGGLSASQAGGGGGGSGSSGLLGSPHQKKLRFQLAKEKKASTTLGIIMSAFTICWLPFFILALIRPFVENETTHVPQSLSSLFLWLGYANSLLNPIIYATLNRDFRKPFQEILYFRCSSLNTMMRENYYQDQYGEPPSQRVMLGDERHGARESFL
T1 sequence (I7JA47 entry or part of it): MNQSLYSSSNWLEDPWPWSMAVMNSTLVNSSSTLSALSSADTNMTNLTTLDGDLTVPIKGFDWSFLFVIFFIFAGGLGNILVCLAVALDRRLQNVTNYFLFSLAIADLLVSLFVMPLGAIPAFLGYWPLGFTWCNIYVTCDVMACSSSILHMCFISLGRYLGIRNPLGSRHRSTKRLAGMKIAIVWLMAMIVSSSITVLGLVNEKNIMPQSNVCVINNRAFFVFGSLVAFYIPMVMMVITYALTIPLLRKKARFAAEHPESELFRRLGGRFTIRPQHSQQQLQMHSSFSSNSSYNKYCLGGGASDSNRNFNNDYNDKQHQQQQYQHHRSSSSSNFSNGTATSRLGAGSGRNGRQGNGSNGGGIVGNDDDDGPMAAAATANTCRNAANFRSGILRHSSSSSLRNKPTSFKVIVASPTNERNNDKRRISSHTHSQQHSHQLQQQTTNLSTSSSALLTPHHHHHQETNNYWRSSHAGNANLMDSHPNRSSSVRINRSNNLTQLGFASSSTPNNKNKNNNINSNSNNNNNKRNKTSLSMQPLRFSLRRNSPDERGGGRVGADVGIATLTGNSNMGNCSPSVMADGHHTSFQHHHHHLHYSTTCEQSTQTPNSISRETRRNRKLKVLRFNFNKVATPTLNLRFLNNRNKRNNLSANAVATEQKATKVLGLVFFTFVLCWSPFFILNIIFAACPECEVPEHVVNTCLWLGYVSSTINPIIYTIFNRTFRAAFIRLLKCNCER

In the case of `NCCc1c[nH]c2ccc(O)cc12` [5-HT, 5-hydroxytryptamine], the “effect on [Ca2+]i in Cv5-HT2α-expressing cells” value (“effect on [Ca2+]i” below) [1] is reported as “increase of [Ca^2+]i”, the EC50 ([1]; Cv5-HT2α EC50, Ca2+-dependent Fluo-4 signal) is reported as 24 nM and the EC50 ([1]; Cv5-HT2α log EC50, Ca2+-dependent Fluo-4 signal) is reported as 24 nM. The “effect on [cAMP]i in Cv5-HT7-expressing cells” value (“effect on [cAMP]i” for short) [2] was “rise of [cAMP]i”, the EC50 [3] was 2.8 nM and the “TEP change of salivary glands” value ([4]; 30 nM) was “characteristic biphasic change in the TEP”. The EC50 [5] was 1 to 6 nM, the EC50 [6, 9] was 4 nM and the EC50 ([6]; Fluo-4 signal, Cv5-HT7-expressing flpTM cells, 100 µM IBMX, read-out: Cv5-HT7 log EC50 (converted)) was 4.07 nM.
For `CCN(CC)C(=O)N[C@H]1C=C2c3cccc4[nH]cc(c34)C[C@H]2N(C)C1` [R(+)-lisuride], the “Cv5-HT2α EC50” value [1] was “no effect”, the “Cv5-HT2α log EC50” value [1] was “no effect” and the “TEP change of salivary glands” value ([4]; 30 nM) was “irreversible positive-going TEP change”. For the same compound, the “negative TEP phase” value ([4]; 0.03-0.3 µM) was “-”, the “positive TEP phase” value ([4]; 0.03-0.3 µM) was “++” and the reversibility ([4]; 0.03-0.3 µM) was “no (within 20 min)”. The “Cv5-HT7 log EC50” value ([6]; Fluo-4 signal, Cv5-HT7-expressing flpTM cells, 100 µM IBMX) was −8.75±0.05, the EC50 [6, 9] was 2 nM and the “efficacy at Cv5-HT7 compared to 5-HT” value ([6]; highest agonist concentrations, normalized to 5-HT maximum) was “very low efficacy”.
With `NCCc1ccc(O)c(O)c1` [dopamine] the “effect on [Ca2+]i” value [1] was “only 5-HT led to an increase of [Ca^2+]i” and the “effect on [cAMP]i” value [2] was “only 5-HT led to a rise of [cAMP]i”.
In the case of `CC[C@@H](CO)NC(=O)[C@@H]1C=C2c3cccc4c3c(cn4C)C[C@H]2N(C)C1` [methysergide], the “Cv5-HT7 IC50” value [7] is reported as “agonistic effect”, the “Cv5-HT7 log IC50” value [7] is reported as “agonistic effect” and the “Cv5-HT2α EC50” value [1] is reported as “no effect”. The “Cv5-HT2α log EC50” value [1] was “no effect”, the IC50 ([8]; Cv5-HT2α IC50, in the presence of 100 nM 5-HT) was 20000 nM and the IC50 ([8]; Cv5-HT2α log IC50, in the presence of 100 nM 5-HT) was 19500 nM. The “TEP change of salivary glands” value ([4]; 3 µM) was “complex biphasic TEP responses”, the “negative TEP phase” value ([4]; 3 µM) was “+” and the reversibility ([4]; 3 µM) was “yes”. The EC50 ([6]; Cv5-HT7 EC50, Fluo-4 signal, Cv5-HT7-expressing flpTM cells, 100 µM IBMX) was 770 nM and the EC50 ([6]; Cv5-HT7 log EC50, Fluo-4 signal, Cv5-HT7-expressing flpTM cells, 100 µM IBMX) was 776 nM.
For `NCC(O)c1ccc(O)cc1` (centres unmarked) [octopamine], the “effect on [Ca2+]i” value [1] was “only 5-HT led to an increase of [Ca^2+]i” and the “effect on [cAMP]i” value [2] was “only 5-HT led to a rise of [cAMP]i”.
With `NCCc1ccc(O)cc1` [tyramine] the “effect on [Ca2+]i” value [1] was “only 5-HT led to an increase of [Ca^2+]i” and the “effect on [cAMP]i” value [2] was “only 5-HT led to a rise of [cAMP]i”.
